From patent publication US20020137929A1, “1 - (3-heterocyclylphenyl) isothiourea, -isourea, -guanidine and -amidine herbicidal agents” (Intellectual Property Department, BASF Aktiengesellschaft, priority 1998, published 2002)

How the values were obtained:
CYPSE (Flatsedge) = assay: Preemergence weed control under flooded paddy conditions; type: in vivo, Cyperus serotinus; conditions: rated 3-4 weeks after treatment
Procedure, shortened: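 Herbicidal effect is scored visually on a 0-9 scale against an untreated control, three to four weeks after compounds are pipetted into the flood water (1.5 to 3 cm deep) over seeds planted in silt loam at 0.5 cm depth. Rates: about 0.0313 to 0.500 kg/ha.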

[1] = system: CHEAL (Lambsquarters, Common); assay: Preemergence herbicidal evaluation; type: in vivo, Chenopodium album; conditions: rated 4-5 weeks after treatment
Procedure, shortened: (§1)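 Steps: mix seeds into potting soil; plant atop ~1 inch soil; spray compound in aqueous acetone (~0.0156-0.500 kg/ha equivalent); maintain in greenhouse with watering; rate visually 0-9 versus control at 4-5 weeks.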

ECHCG (Barnyardgrass) = assay: Postemergence herbicidal evaluation; type: in vivo, Echinochloa crus-galli; conditions: postemergence
Procedure, shortened: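 Visual 0–9 rating versus control (stand, vigor, malformation, size, chlorosis, overall appearance), taken four to five weeks post-spray. Two-week-old seedlings received roughly 0.0156–0.500 kg/ha active in acetone/water (50/50) with 0.5% TWEEN 20 via nozzle at 40 psi.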

ORYSAT (Rice, Tebonnet) = assay: Preemergence herbicidal evaluation; type: in vivo, Oryza sativa, (L.) Tebonnet; conditions: rated 4-5 weeks after treatment
Procedure, shortened: as §1

[2] = system: ECHORC (Watergrass (Calif.)); assay: Preemergence weed control under flooded paddy conditions; type: in vivo, Echinochloa oryzoides; conditions: rated 3-4 weeks after treatment
Procedure, shortened: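 Visual injury scored 0-9 against control three to four weeks post-treatment, greenhouse-grown. Application: acetone/water (50/50) solutions dosed directly into flood water (1.5-3 cm over silt loam, planted top 0.5 cm), roughly 0.0313 to 0.500 kg/ha active ingredient.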

[3] = rate 0.0625 kg/ha, rating scale 0-9
[4] = rate 0.1250 kg/ha, rating scale 0-9
[5] = rate 0.2500 kg/ha, rating scale 0-9
[6] = rate 0.0156 kg/ha, rating scale 0-9
[7] = rate 0.0313 kg/ha, rating scale 0-9

SMILES | herbicidal effect rating, CYPSE (CYPSE (Flatsedge); 0.0313 kg/ha) | herbicidal effect rating, CYPSE (CYPSE (Flatsedge); 0.0625 kg/ha) | herbicidal effect rating, CYPSE (CYPSE (Flatsedge); 0.1250 kg/ha) | herbicidal effect rating, CYPSE (CYPSE (Flatsedge); 0.2500 kg/ha) | Preemergence herbicidal rating CHEAL [1, 3] | Preemergence herbicidal rating CHEAL [1, 4] | Preemergence herbicidal rating CHEAL [1, 5] | Herbicidal rating ECHCG (ECHCG (Barnyardgrass); rate 0.0156 kg/ha) | Herbicidal rating ECHCG (ECHCG (Barnyardgrass); rate 0.0313 kg/ha) | Herbicidal rating ECHCG (ECHCG (Barnyardgrass); rate 0.0625 kg/ha) | Preemergence herbicidal rating ORYSAT (ORYSAT (Rice, Tebonnet); [3]) | Preemergence herbicidal rating ORYSAT (ORYSAT (Rice, Tebonnet); [4]) | Preemergence herbicidal rating ORYSAT (ORYSAT (Rice, Tebonnet); [5]) | herbicidal effect rating, ECHORC ([2]; 0.0313 kg/ha) | herbicidal effect rating, ECHORC ([2]; 0.0625 kg/ha) | herbicidal effect rating, ECHORC ([2]; 0.1250 kg/ha) | herbicidal effect rating, ECHORC ([2]; 0.2500 kg/ha) | Preemergence herbicidal rating CHEAL [1, 7] | Preemergence herbicidal rating ORYSAT (ORYSAT (Rice, Tebonnet); [7]) | further results
COc1cc(CN2C(=O)CSC2=Nc2cc(-n3c(=O)cc(C(F)(F)F)n(C)c3=O)c(F)cc2Cl)cc(OC)c1OC [Compound 140, 3-{4-Chloro-2-fluoro-5-{[3-(3,4,5-trimethoxybenzyl)-4-oxo-2-thiazolidinylidene]amino}phenyl}-1-methyl-6-(trifluoromethyl)-2,4(1H,3H)-pyrimidinedione] | 0.0 | 0.0 | 0.0 | 0.0 | 9.0 | 9.0 | 9.0 | 0.0 | 0.0 | 0.0 | 0.0 | 0.0 | 0.0 | 5.0 | 5.0 | 7.0 | 7.0 | – | – | –
CCOC(=O)CN1C(=O)C(OC)SC1=Nc1cc(-n2c(=O)cc(C(F)(F)F)n(C)c2=O)c(F)cc1Cl (stereo not drawn) [Compound 160, Ethyl 2-{{2-chloro-5-[3,6-dihydro-3-methyl-2,6-dioxo-4-(trifluoromethyl)-1(2H)-pyrimidinyl]-4-fluorophenyl}imino}-5-methoxy-4-oxo-3-thiazolidineacetate] | 3.0 | 3.0 | 3.0 | 3.0 | – | – | – | 3.0 | 5.0 | 4.0 | – | – | – | 0.0 | 0.0 | 2.0 | 4.0 | – | – | Preemergence herbicidal rating CHEAL ([1]; 0.0156 kg/ha): 2.0; Preemergence herbicidal rating CHEAL ([1]; 0.0313 kg/ha): 9.0; Preemergence herbicidal rating CHEAL ([1]; 0.0625 kg/ha): 9.0; Preemergence herbicidal rating CHEAL ([1]; 0.1250 kg/ha): 9.0; Preemergence herbicidal rating CHEAL ([1]; 0.2500 kg/ha): 9.0; Preemergence herbicidal rating CHEAL ([1]; 0.5000 kg/ha): 9.0; Herbicidal rating ECHCG (ECHCG (Barnyardgrass); rate 0.1250 kg/ha): 7.0; Preemergence herbicidal rating ORYSAT (ORYSAT (Rice, Tebonnet); 0.0156 kg/ha): 0.0; Preemergence herbicidal rating ORYSAT (ORYSAT (Rice, Tebonnet); 0.0313 kg/ha): 0.0; Preemergence herbicidal rating ORYSAT (ORYSAT (Rice, Tebonnet); 0.0625 kg/ha): 1.0; Preemergence herbicidal rating ORYSAT (ORYSAT (Rice, Tebonnet); 0.1250 kg/ha): 1.0; Preemergence herbicidal rating ORYSAT (ORYSAT (Rice, Tebonnet); 0.2500 kg/ha): 7.0; Preemergence herbicidal rating ORYSAT (ORYSAT (Rice, Tebonnet); 0.5000 kg/ha): 8.0
Cc1ccccc1CN1C(=O)CSC1=Nc1cc(-n2c(=O)cc(C(F)(F)F)n(C)c2=O)c(F)cc1Cl [Compound 129, 3-{4-Chloro-2-fluoro-5-{[3-(o-methylbenzyl)-4-oxo-2-thiazolidinylidene]amino}phenyl}-1-methyl-6-(trifluoromethyl)-2,4 (1H,3H)-pyrimidinedione] | – | – | 7.0 | 9.0 | – | – | – | 1.0 | 2.0 | 3.0 | – | – | – | 9.0 | 9.0 | 9.0 | 9.0 | – | – | Preemergence herbicidal rating CHEAL ([1]; rate 0.0156 kg/ha): 4.0; Preemergence herbicidal rating CHEAL ([1]; rate 0.0313 kg/ha): 3.0; Preemergence herbicidal rating CHEAL ([1]; rate 0.0625 kg/ha): 9.0; Preemergence herbicidal rating CHEAL ([1]; rate 0.1250 kg/ha): 9.0; Preemergence herbicidal rating CHEAL ([1]; rate 0.2500 kg/ha): 9.0; Preemergence herbicidal rating ORYSAT (ORYSAT (Rice, Tebonnet); rate 0.0156 kg/ha): 0.0; Preemergence herbicidal rating ORYSAT (ORYSAT (Rice, Tebonnet); rate 0.0313 kg/ha): 0.0; Preemergence herbicidal rating ORYSAT (ORYSAT (Rice, Tebonnet); rate 0.0625 kg/ha): 1.0; Preemergence herbicidal rating ORYSAT (ORYSAT (Rice, Tebonnet); rate 0.1250 kg/ha): 1.0; Preemergence herbicidal rating ORYSAT (ORYSAT (Rice, Tebonnet); rate 0.2500 kg/ha): 3.0
Cn1c(C(F)(F)F)cc(=O)n(-c2cc(N=C3SCC(=O)N3Cc3cccnc3)c(Cl)cc2F)c1=O [Compound 132, 3-{4-Chloro-2-fluoro-5-{[4-oxo-3-(3-pyridylmethyl)-2-thiazolidinylidene]amino}phenyl}-1-methyl-6-(trifluoromethyl)-2,4 (1H,3H)-pyrimidinedione] | 0.0 | 0.0 | 0.0 | 0.0 | 9.0 | 9.0 | 9.0 | 1.0 | 2.0 | 2.0 | 0.0 | 0.0 | 1.0 | 3.0 | 4.0 | 4.0 | 6.0 | – | – | –
Cc1cc(C)cc(CN2C(=O)CSC2=Nc2cc(-n3c(=O)cc(C(F)(F)F)n(C)c3=O)c(F)cc2Cl)c1 [Compound 146, 3-{4-Chloro-5-{[3-(3,5-dimethylbenzyl)-4-oxo-2-thiazolidinylidene]amino}-2-fluorophenyl}-1-methyl-6-(trifluoromethyl)-2,4(1H,3H)-pyrimidinedione] | 0.0 | 0.0 | 0.0 | 0.0 | 9.0 | 9.0 | 9.0 | 1.0 | 1.0 | 2.0 | 0.0 | 0.0 | 1.0 | 9.0 | 9.0 | 9.0 | 9.0 | 9.0 | 0.0 | Preemergence herbicidal rating CHEAL [1, 6]: 0.0; Preemergence herbicidal rating ORYSAT (ORYSAT (Rice, Tebonnet); [6]): 0.0
Cn1c(C(F)(F)F)cc(=O)n(-c2cc(N=C3SCC(=O)N3Cc3ccncc3)c(Cl)cc2F)c1=O [Compound 133, 3-{4-Chloro-2-fluoro-5-{[4-oxo-3-(4-pyridylmethyl)-2-thiazolidinylidene]amino}phenyl}-1-methyl-6-(trifluoromethyl)-2,4(1H,3H)-pyrimidinedione] | 0.0 | 0.0 | 0.0 | 1.0 | 9.0 | 9.0 | 9.0 | 1.0 | 1.0 | 1.0 | 0.0 | 0.0 | 0.0 | 6.0 | 6.0 | 9.0 | 9.0 | 9.0 | 0.0 | –
